Reference: patent US10287258B2, “Certain (2S)-N-[(1S)-1-cyano-2-phenylethyl]-1,4-oxazepane-2-carboxamides as dipeptidyl peptidase 1 inhibitors” (AstraZeneca AB, priority 2014, dated 2019)

Experiments:
[1] = Test B: In-vitro competitive aortic tissue binding assay; conditions: 100 μM compound, competition with [14C]4-amino-N-[(1S)-1-cyano-2-(4′-cyanobiphenyl-4-yl)ethyl]tetrahydro-2H-pyran-4-carboxamide, rat aortic homogenate
Description: Test B: In-Vitro Competitive Aortic Tissue Binding Assay
Aortic homogenate was prepared from the thoracic aortae of Han Wistar rats. Freshly isolated thoracic aortae were frozen, and later thawed and stripped of non-elastic material. […] Homogenate concentration was adjusted to 30 mg/mL in Puck's saline, and aliquots were stored at −80° C. until use. Positive and negative control compounds and test compounds were made up to 100 mM in DMSO, and added to 1 mL aliquots of aortic homogenate in Puck's saline for a final concentration of 100 μM. Homogenate samples were pre-incubated with test compounds at 37° C., rotating, overnight. [^14C]4-Amino-N-[(1S)-1-cyano-2-(4′-cyanobiphenyl-4-yl)ethyl]tetrahydro-2H-pyran-4-carboxamide was then added to all samples to a final concentration of 100 μM, and samples were incubated at 37° C., rotating, for a further 2 h. Protein was precipitated from each sample by the addition of 10 mL acetone, pre-chilled to −20° C. Samples were left overnight at −20° C. to allow complete precipitation. […] Precipitate was washed by resuspension in 10 mL 80% methanol in distilled water, and re-pelleted by centrifugation at 4,500× g at 4° C. for 20 min. […] After final wash, precipitate was air-dried, and dissolved overnight in 1 mL NCSII Tissue Solubiliser. 1 mL aliquots of supernatants were added to 5 mL Ultima Gold scintillation fluid (Perkin Elmer, MA, U.S.A.), and 1 mL solubilised pellets were added to 5 mL Hionic-Fluor scintillation fluid (Perkin Elmer, MA, U.S.A.). Radioactivity of samples was determined on a Beckman LS6500 multipurpose scintillation counter (Beckman Coulter, IN, U.S.A.). […] Duplicate samples were tested for each compound on each experimental occasion, and at least two experiments were run for each test compound. […] 1-way ANOVA and Bonferroni's multiple comparison tests were performed to calculate significance of differences from vehicle control.

[2] = Rat quantitative whole-body autoradiography (QWBA) studies, aortic retention; format: in vivo
[3] = literature (Schmidt et al. 1984); cited from earlier work
[4] = target: recombinant human DPP1 (rhDPP1) (Homo sapiens (Human), UniProt P53634); experiment: Test A2: Fluorescence assay for recombinant human (RH) DPP1; format: biochemical; conditions: Test A2 (Examples 36-37); 96.4 pM rhDPP1, 50 μM H-Gly-Arg-AMC, pH 5.0, rt
recombinant human DPP1 (rhDPP1), sequence (P53634 231-394): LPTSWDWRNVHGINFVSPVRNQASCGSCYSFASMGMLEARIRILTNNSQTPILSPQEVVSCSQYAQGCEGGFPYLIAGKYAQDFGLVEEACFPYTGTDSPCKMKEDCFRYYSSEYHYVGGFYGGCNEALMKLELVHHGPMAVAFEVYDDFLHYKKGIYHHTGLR
recombinant human DPP1 (rhDPP1), sequence (P53634 25-134): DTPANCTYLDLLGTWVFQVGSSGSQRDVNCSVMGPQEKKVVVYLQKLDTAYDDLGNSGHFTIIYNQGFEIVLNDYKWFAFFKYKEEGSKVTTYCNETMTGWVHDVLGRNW
recombinant human DPP1 (rhDPP1), sequence (P53634 395-463): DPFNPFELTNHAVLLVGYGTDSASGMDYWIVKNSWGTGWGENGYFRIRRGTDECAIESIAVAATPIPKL
Description: Test A2: Fluorescence Assay for Recombinant Human (RH) DPP1
The activity of DPP1 was determined by measuring the enzymatic release of aminomethyl coumarin (AMC) from the peptide substrate (H-Gly-Arg-AMC), which leads to an increase in fluorescence intensity at λex=350 nm and λem=450 nm. The assay was carried out in black 384 well plates in a final volume of 10 μl at rt. The assay conditions contained the following: 25 mM piperazine buffer pH 5.0; 50 mM NaCl, 5 mM DTT; 0.005 (v/v) Triton X-100; 50 μM H-Gly-Arg-AMC and 96.4 pM rhDPP1 Potential inhibitors were diluted in DMSO to generate 100× of the final assay concentration. The compounds were tested at 10 concentrations with half-log dilution steps (highest concentration typically 1 μM) and with a final DMSO concentration of 1% (v/v). Routinely, inhibitors were pre-incubated with rhDPP1 for 30 min prior to the addition of the peptide substrate to start the reaction for a further 30 min. After incubation the plates were read in a fluorescence plate reader using the above emission and excitation wavelengths. The pIC50 were determined using a 4-paramater logistic equation in a non-linear curve fitting routine (Smartfit, Genedata Screener®). […]

Aortic Tissue Binding [1] | Compound | further results
Strong binder reference | N#Cc1ccc(-c2ccc(C[C@@H](C#N)NC(=O)C3(N)CCOCC3)cc2)cc1 [WO2010/128324 (Ex. 3), 4-amino-N-[(1S)-1-cyano-2-(4′-cyanobiphenyl-4-yl)ethyl]tetrahydro-2H-pyran-4-carboxamide] | aortic retention in rat QWBA studies [2]: high level of aortic retention
 | CC(c1ccc(Cl)c(Cl)c1)N1N=C(N)CC1=O (stereo not drawn) [muzolimine] | retention in the aorta in QWBA studies [3]: retained selectively in the aorta
Strong binder | Cn1c(=O)oc2ccc(-c3ccc(C[C@@H](C#N)NC(=O)C4(N)CCOCC4)cc3)cc21 [WO2010/128324 (Example 17)] | 
 | CC(C)C[C@@H](/C=C/C(=O)N1CCc2ccccc21)NC(=O)[C@@H]1CNCCCO1.O=C(O)C(F)(F)F [Example 37, (2S)-2-[(2E,4S)-1-(2,3-Dihydro-1H-indol-1-yl)-6-methyl-1-oxohept-2-en-4-yl]-1,4-oxazepane-2-carboxamide trifluoroactetate] | DPP1 activity, pIC50 [4]: 8.28
 | CC[C@@H](/C=C/C(=O)N1CCc2ccccc21)NC(=O)[C@@H]1CNCCCO1.O=C(O)C(F)(F)F [Example 36] | DPP1 activity, pIC50 [4]: 8.3
No binder | Cn1c(=O)oc2ccc(-c3ccc(C[C@@H](C#N)NC(=O)[C@@H]4CNCCCO4)cc3)cc21 [Example 2, (2S)-N-{(1S)-1-Cyano-2-[4-(3-methyl-2-oxo-2,3-dihydro-1,3-benzoxazol-5-yl)phenyl]ethyl}-1,4-oxazepane-2-carboxamide] | 
Medium binder | Cn1c(=O)oc2ccc(-c3ccc(C[C@@H](C#N)NC(=O)[C@@H]4CCCCN4)cc3)cc21 [WO2009/074829 (Example 96)] | 
Binder | N#Cc1ccc(-c2ccc(C[C@@H](C#N)NC(=O)[C@@H]3CCCCN3)cc2)cc1 [WO2009/074829 (Example 24)] | 
